{"source": "patent US20240228647A1", "about": "“OFATUMUMAB FOR TREATING MULTIPLE SCLEROSIS IN ASIAN PATIENTS” (Novartis AG, priority 2021, published 2024)", "key": {"patients with RMS": {"system": "patients with RMS", "assay_type": "in vivo, human", "conditions": "human, in vivo", "method": "Ofatumumab was investigated in 1882 patients with RMS from two identical Phase III randomized, double-blind, double-dummy, active-comparator controlled, parallel-group, multicenter studies of identical design (Study I and Study II). Patients were randomized to receive either ofatumumab, OMB (20 mg s.c injections every 4 weeks, after an initial loading regimen of 3 injections on Day 1, 7, and 14), or teriflunomide, TER (14 mg p.o. once a day) as active comparator. For brevity, the teriflunomide data are not shown hereinafter.\nThe maximum treatment duration for an individual patient was 30 study months (approximately 2.5 years). The two studies included a total of 71 patients of Asian race (36 patients in ofatumumab and 35 patients in teriflunomide treatment groups). This Example also includes the Asian patients data from oncology studies (Study A and Study B), as supportive data, where required.\nFor the safety analyses of this report, non-serious treatment emergent adverse events (TEAEs) up to and including safety cut-off (i.e. 100 days after last study drug administration) and serious TEAEs regardless of the safety cutoff were considered (if reported prior to the data cut-off of Studies I and II). Common terminology criteria for adverse events (CTCAE) grading was used to record the severity of each AE. The latest version of CTCAE available at the time of TEAE reporting was used. […] The three most frequently reported AEs by SOC were ‘General disorders and administration site conditions’ ‘Infections and infestations’ and ‘Injury, poisoning and procedural complications’ in the Asian and ROW subgroups by race (Table 7). […] In the Asian subgroup, 1 patient experienced SAEs of urinary tract infections, urosepsis and testicular infarction in the ofatumumab group and 1 patient reported an SAE of nephrolithiasis in the teriflunomide group (Table 8). Due to the small number of Asian patients by race and region, results should be interpreted with caution.\nAEs of special interest were summarized by risk name, PT and treatment. Furthermore, the incidence of any AE that fulfilled the search terms as defined in eCRS were summarized by risk name, level, and maximum CTCAE grade. In this section, AESIs are first described for subgroups by race and then by region. […] The definitions of AEs of special interest correspond to the identified or potential risks for ofatumumab and its class of drug as well as those for the comparator (teriflunomide). AESIs, based on the safety profiles of ofatumumab, comparator, and other anti-CD20 mABs are: • Injection-related reactions including injection-systemic reaction and injection-site • reactions • Infections, including opportunistic infections, HBV infection reactivation and PML • Malignant and premalignant disorders • Hepatic Safety • Neutropenia"}, "serum Ig levels": {"system": "serum Ig levels", "conditions": "cited from earlier work"}, "serum IgG and IgM levels": {"system": "serum IgG and IgM levels", "conditions": "cited from earlier work"}}}
{"molecule": "C/C(O)=C(\\C#N)C(=O)Nc1ccc(C(F)(F)F)cc1", "note": "[teriflunomide]", "values": [{"measurement": "AE by PT: alopecia, %", "setting": "patients with RMS", "value": 15.3, "unit": "%"}, {"measurement": "AE by PT: alopecia, patients", "setting": "patients with RMS", "value": 138}, {"measurement": "AE by PT: nasopharyngitis, %", "setting": "patients with RMS", "value": 17.2, "unit": "%"}, {"measurement": "AE by PT: nasopharyngitis, patients", "setting": "patients with RMS", "value": 155}, {"measurement": "AE by PT: pyrexia, %", "setting": "patients with RMS", "value": 14.3, "unit": "%"}, {"measurement": "AE by PT: pyrexia, patients", "setting": "patients with RMS", "value": 5}, {"measurement": "AE by PT: upper respiratory tract infection, %", "setting": "patients with RMS", "value": 5.7, "unit": "%"}, {"measurement": "AE by PT: upper respiratory tract infection, patients", "setting": "patients with RMS", "value": 2}, {"measurement": "Patients who experienced at least 1 AE, %", "setting": "patients with RMS", "value": 84.2, "unit": "%"}, {"measurement": "SAE by PT: Appendicitis, %", "setting": "patients with RMS", "value": 0.2, "unit": "%"}, {"measurement": "SAE by PT: Appendicitis, patients", "setting": "patients with RMS", "value": 2}, {"measurement": "Serious TEAE: Infections and infestations, %", "setting": "patients with RMS", "value": 1.9, "unit": "%"}]}
{"molecule": "ocrelizumab", "values": [{"measurement": "Reduction of IgG levels", "setting": "serum Ig levels; after two years (96 weeks), FIG. 6", "value": "approx. 5%"}, {"measurement": "Reduction in serum Ig levels, approximate mean rate per year", "setting": "serum Ig levels; per year, over 5.5 years", "value": "3-4%"}]}
{"molecule": "rituximab [RTX]", "values": [{"measurement": "Decrease of IgM levels in serum per year", "setting": "serum IgG and IgM levels", "value": 5.0, "unit": "%"}]}
